What was measured:
[1] = biological target: T1, vinylthioether-linked HUWE1^HECT-Ub complex (Homo sapiens, UniProt Q7Z6Z7); assay: Isothermal titration calorimetry (ITC) with HUWE1^HECT~Ub proxy; format: binding; conditions: 25 °C
T1 construct: The preparation of the vinylthioether-linked HUWE1^HECT-Ub complex was also previously described; made in house; host or cells: bacteria (components)
Protocol: ITC was performed with an ITC200 calorimeter (MicroCal) at 25 °C. The proteins were dialyzed into 20 mM HEPES (pH 7.5), 150 mM NaCl, and 1 mM β-mercaptoethanol (β-ME) overnight. 600 μM HUWE1^HECT or HUWE1^HECT-Ub were applied to the cell and a 10-fold molar excess of BI8626 to the syringe (and vice versa). The reference cell was filled with buffer. Titration experiments included 1 injection of 1.5 μL, followed by 15 injections of 2.4 μL in 3-s intervals, with 150-s spacings between individual injections. The reference power was set to 12 μcal s^−1 and the stirring speed to 270 rpm. To control for instrument functionality, 5 mM CaCl2 were titrated into 0.4 mM EDTA in 10 mM MES (pH 5.6). Data were plotted with OriginPro v.2020b (OriginLab).

HEK293T cells [2] = assay: Quantitative total proteomics; format: cell-based, human; conditions: 15 μM, 24 h vs DMSO
Protocol: (§1) For total proteomics and Ub remnant profiling (diGly proteomics), HEK293T cells were treated with 15 μM BI8626 (in DMSO) or an equivalent volume of DMSO for 24 h, washed with ice-cold 1 x DPBS, and lysed in 9 M urea, 50 mM Tris (pH 8.0) and 150 mM NaCl, supplemented with protease inhibitor (Roche) and 50 µM PR-619, and processed essentially as described. Briefly, the cells were lysed by sonication, non-solubilized material removed by centrifugation, and the protein concentration was determined with a Pierce BCA Protein Assay Kit. 5 mg was used for further MS processing and four biological replicates per condition.
(§2) After reduction with 5 mM DTT and alkylation with 10 mM chloroacetamide, followed by quenching with 5 mM DTT, lysates were digested with 5 ng/μl LysC protease (Wako) at RT for 1 h. Subsequent digestion of peptides with trypsin (Promega) at a 1: 200 enzyme: peptide ratio was performed. Desalted and lyophilized peptides were resuspended in 1.5 ml IAP buffer (50 mM MOPS (pH 7.2), 10 mM Na2HPO4, 50 mM NaCl) and centrifuged to remove insoluble material. […]
(§3) Data collection was controlled by Tune v.4.0.4084.22 (Thermo Scientific) and Xcalibur v.2.4 (Thermo Fisher Scientific). Raw data files from quadruplicate samples were analyzed using MaxQuant v.1.6.0.1 (Max Planck Institute of Biochemistry)[56],[57]. […]

HEK293T cells [3] = assay: Ub remnant profiling (diGly proteomics); format: cell-based, human; conditions: 15 μM, 24 h vs DMSO
Protocol: as §1, §2, §3

T1 sequence (Q7Z6Z7 4038-4374 limits assumed, other chains not shown): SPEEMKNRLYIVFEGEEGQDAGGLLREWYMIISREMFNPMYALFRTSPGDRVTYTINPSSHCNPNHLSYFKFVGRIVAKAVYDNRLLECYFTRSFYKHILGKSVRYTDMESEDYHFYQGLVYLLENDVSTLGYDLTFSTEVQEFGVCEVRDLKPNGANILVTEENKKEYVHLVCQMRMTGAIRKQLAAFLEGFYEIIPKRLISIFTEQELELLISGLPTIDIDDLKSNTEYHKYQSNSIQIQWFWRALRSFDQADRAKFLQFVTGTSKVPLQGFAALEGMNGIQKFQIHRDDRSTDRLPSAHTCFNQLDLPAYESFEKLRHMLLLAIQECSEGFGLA

NCc1cccc(CNc2ncnc3c(N4CCN(Cc5ccccc5)CC4)ncnc23)c1 [BI8626]
Interaction with the HUWE1^HECT~Ub proxy by ITC [1]: No binding was detected | Total proteome changes (HEK293T cells [2]): widespread compound-induced changes | Protein ubiquitination changes (diGly proteomics) (HEK293T cells [3]): predominantly reductions in protein ubiquitination
